According to ChEMBL document CHEMBL1151865, “New developments for the design, synthesis and biological evaluation of potent SARS-CoV 3CL(pro) inhibitors” (Bioorg Med Chem Lett, 2009):

Target: Replicase polyprotein 1ab (Severe acute respiratory syndrome-related coronavirus, UniProt P0C6X7)
Assay: Inhibition of SARS coronavirus 3CL protease pretreated for 10 mins before substrate addition

Q: How did the Ki turn out when `CCCN(CCC)C(=O)CC[C@H](NC(=O)[C@H](CC(C)C)NC(=O)[C@@H](NC(=O)[C@H](C)NC(=O)OCc1ccccc1)C(C)C)C(=O)C(F)(F)F` was run?
A: 297 µM

Q: For `CCN(CC)C(=O)CC[C@H](NC(=O)[C@H](CC(C)C)NC(=O)[C@@H](NC(=O)OCc1ccccc1)C(C)C)C(=O)c1nc2ccccc2s1`, which Ki is on record?
A: 49.3 µM

Q: Which Ki does the source give for `CCCN(CCC)C(=O)CC[C@H](NC(=O)[C@H](CC(C)C)NC(=O)[C@@H](NC(=O)OCc1ccccc1)C(C)C)C(=O)C(F)(F)F` here?
A: 363 µM

Q: How did the Ki turn out when `CC(C)C[C@H](NC(=O)[C@@H](NC(=O)OCc1ccccc1)C(C)C)C(=O)N[C@@H](CCC(=O)c1nccs1)C(=O)c1nccs1` was run?
A: 45.2 µM

Q: Which Ki does the source give for `CCCN(CCC)C(=O)CC[C@H](NC(=O)[C@H](CC(C)C)NC(=O)OCc1ccccc1)C(=O)C(F)(F)F` here?
A: 584 µM

Q: With `CCN(CC)C(=O)CC[C@H](NC(=O)[C@H](CC(C)C)NC(=O)OCc1ccccc1)C(=O)c1nccs1` as the molecule, how does the Ki read?
A: 462 µM

Q: `CC(C)C[C@H](NC(=O)[C@@H](NC(=O)OCc1ccccc1)C(C)C)C(=O)N[C@@H](CCC(=O)N1CCOCC1)C(=O)C(F)(F)F` was tested. Which Ki did it give?
A: 21 µM

Q: With `CC(C)C[C@H](NC(=O)[C@@H](NC(=O)OCc1ccccc1)C(C)C)C(=O)N[C@@H](CCC(=O)N1CCOCC1)C(=O)c1nccs1` as the molecule, how does the Ki read?
A: 478 µM

Q: Which Ki does the source give for `CC(C)C[C@H](NC(=O)[C@@H](NC(=O)OCc1ccccc1)C(C)C)C(=O)N[C@@H](CCC(=O)N(C)Cc1ccccc1)C(=O)C(F)(F)F` here?
A: 34.1 µM

Q: With `CCN(CC)C(=O)CC[C@H](NC(=O)[C@H](CC(C)C)NC(=O)[C@@H](NC(=O)OCc1ccccc1)C(C)C)C(=O)c1nccs1` as the molecule, how does the Ki read?
A: 112 µM

Q: With `CCN(CC)C(=O)CC[C@H](NC(=O)[C@@H](NC(=O)OCc1ccccc1)C(C)C)C(=O)c1nccs1` as the molecule, how does the Ki read?
A: 614 µM

Q: How did the Ki turn out when `CCN(CC)C(=O)CC[C@H](NC(=O)[C@@H](NC(=O)OCc1ccccc1)C(C)C)C(=O)c1nc2ccccc2s1` was run?
A: 159 µM
